In patent US9241964B2, “Composition from Sphaeranthus indicus and Garcinia mangostana for the control of metabolic syndrome” (LAILA NUTRACEUTICALS, priority 2009, dated 2016):
≈ marks a conversion by molar mass, not a printed value.

Experiments:
[1] = system: Matrix Metalloproteinase-3 (MMP-3); assay: Inhibition of MMP-3 production in IL-1β induced A549 cells (ELISA); assay type: cell-based; conditions: 10 ng/mL IL-1β induced A549 human lung tumor cells, 24 h, supernatant ELISA
Experimental: A549 cells were induced with 10 ng/ml human IL-1β in absence or presence of different concentrations of LI/DD-II/054A/01 for 24 h as indicated. Secreted MMP-3 concentration in the cell free culture supernatants was measured using MMP-3 ELISA Development Kit (R&D System, Minneapolis, Minn., USA). The MMP-3 concentration in culture supernatants was estimated quantitatively from the standard curve generated using known concentrations of MMP-3. Percentage of MMP-3 inhibition at each concentration of test compound was calculated from the formula: {(Conc. of MMP-3 in IL-1β induced−Conc. of MMP-3 in the test well)×100}÷Conc. of MMP-3 in IL-1β induced wells.
MMP-3 was evaluated in Interleukin-1β induced human lung tumor cell line A549. Briefly, the cells were cultured in DMEM with 2 mM Glutamine, 100 U/mL penicillin, […] streptomycin and 10% fetal bovine serum (Hyclone, Logan, Utah). Five thousand cells per well were seeded into a 96-well cell culture plate (Corning, USA) one day before the experiment. The culture media was replaced with fresh DMEM containing 10% fetal bovine serum. […] The MMP-3 concentration in culture supernatant was estimated quantitatively by interpolating the optical densities into the standard curve generated from known concentrations of MMP-3. […]

CD36 = assay: Immunoblot of CD36 in high glucose induced J774 macrophage cells; assay type: cell-based, mouse; conditions: glucose 600 mg/dL for 5 days, LI054A01 at 1 μg/ml
Experimental: In macrophages, CD36 is a scavenger receptor that mediates uptake of oxidized low-density lipoprotein (OxLDL) and subsequent foam-cell development. Therefore, increased level of CD36 in macrophages has been considered as a predictive marker for development of atherosclerosis. Inhibition of CD36 protein expression in high glucose induced J774 macrophage cells in presence or absence of LI/DD-II/054A/01 and LI054A01 was evaluated using immunoblot assay. Briefly, equal amount of cell lysates protein obtained after treating the cells with LI/DD-II/054A/01 or LI054A01 was resolved in 7.5% SDS-PAGE; thereafter, the proteins were transferred to nitrocellulose membrane. […] Finally, the specific immuno-reactive bands were developed with West-pico chemiluminescent substrate (Pierce Biotechnology, IL, USA), and the immunoblot images were recorded in a Kodak Image Station (Kodak, USA). Band intensities were calculated densitometrically and normalized with expression of actin in respective samples. […]
Experimental protocol: This was evaluated in glucose induced J774, mouse macrophage cells. […] Protein concentration was measured by Bradford method.
Inhibition of CD36 protein expression in high glucose induced J774 macrophage cells in presence or absence of LI/DD-II/054A/01 and LI054A01 was evaluated in immunoblot assay. […]

IC50 against MMP-3 [1]: 0.075 µg/mL (≈ 0.302 µM)
SMILES: C=C1C(=O)O[C@H]2C3=C(C)CCC[C@]3(C)CC[C@@]12O [LI054A01, 7-α-hydroxy-4,11(13)-eudesmadien-12,6-olide]
inhibition of CD36 compared to that shown by LI/DD-II/054A/01 (CD36): 10 times
